Source: ChEMBL document CHEMBL3046140, “Design, synthesis, antimicrobial, anticancer evaluation, and QSAR studies of 4-(substituted benzylidene-amino)-1,5-dimethyl-2-phenyl-1,2-dihydropyrazol-3-ones” (Med Chem Res, 2012)

What was measured:
Aspergillus niger [1] = assay: Fungicidal activity against Aspergillus niger MTCC 8189; type: functional
Candida albicans [2] = assay: Fungicidal activity against Candida albicans MTCC 227; type: functional
Staphylococcus aureus [3] = assay: Bactericidal activity against Staphylococcus aureus MTCC 2901; type: functional
Bacillus subtilis [4] = assay: Antibacterial activity against Bacillus subtilis MTCC 2063 after 24 hr by tube dilution method; type: functional
Escherichia coli [5] = assay: Antibacterial activity against Escherichia coli MTCC 1652 after 24 hr by tube dilution method; type: functional
Escherichia coli [6] = assay: Bactericidal activity against Escherichia coli MTCC 1652; type: functional
Bacillus subtilis [7] = assay: Bactericidal activity against Bacillus subtilis MTCC 2063; type: functional
Aspergillus niger [8] = assay: Antifungal activity against Aspergillus niger MTCC 8189 after 7 days by tube dilution method; type: functional
Staphylococcus aureus [9] = assay: Antibacterial activity against Staphylococcus aureus MTCC 2901 after 24 hr by tube dilution method; type: functional
Candida albicans [10] = assay: Antifungal activity against Candida albicans MTCC 227 after 48 hr by tube dilution method; type: functional
HCT-116 = assay: Cytotoxicity against Homo sapiens (human) HCT116 cells after 72 hr by MTT assay; type: functional, cell-based; conditions: HCT-116, 72 h, read-out: pIC50 (converted)
HT-29 = assay: Cytotoxicity against Homo sapiens (human) HT-29 cells after 72 hr by MTT assay; type: functional, cell-based; conditions: HT-29, 72 h, read-out: pIC50 (converted)

Structure (SMILES)	MFC (Aspergillus niger [1]) [uM/ml]	MFC (Candida albicans [2]) [uM/ml]	MBC (Staphylococcus aureus [3]) [uM/ml]	-logMIC (Bacillus subtilis [4])	-logMIC (Escherichia coli [5])	MBC (Escherichia coli [6]) [uM/ml]	MBC (Bacillus subtilis [7]) [uM/ml]	-logMIC (Aspergillus niger [8])	-logMIC (Staphylococcus aureus [9])	-logMIC (Candida albicans [10])	IC50 (HCT-116) [µM]	IC50 (HT-29) [µM]
Cc1c(/N=C/c2ccccc2)c(=O)n(-c2ccccc2)n1C	>0.17	>0.17	>0.17	1.07	1.37	>0.17	>0.17	1.37	1.07	1.37		
Cc1c(/N=C/c2ccc(Cl)cc2)c(=O)n(-c2ccccc2)n1C	0.15	>0.15	>0.15	1.12	1.12	>0.15	>0.15	1.42	1.12	1.42		
Cc1c(/N=C/c2ccc(O)cc2)c(=O)n(-c2ccccc2)n1C	>0.16	>0.16	>0.16	1.39	1.39	>0.16	>0.16	1.69	1.39	1.39		
COc1ccc(/C=N/c2c(C)n(C)n(-c3ccccc3)c2=O)cc1	>0.16	>0.16	>0.16	1.11	1.41	>0.16	>0.16	1.41	1.11	1.41		
COc1ccc(/C=N/c2c(C)n(C)n(-c3ccccc3)c2=O)cc1OC	>0.14	>0.14	>0.14	1.15	1.45	>0.14	>0.14	1.45	1.15	1.45		
COc1cc(/C=N/c2c(C)n(C)n(-c3ccccc3)c2=O)cc(OC)c1OC	0.13	>0.13	>0.13	1.48	1.48	>0.13	>0.13	1.48	1.48	1.48		
Cc1c(/N=C/c2cccc(Cl)c2)c(=O)n(-c2ccccc2)n1C	>0.15	>0.15	>0.15	1.72	2.02	>0.15	>0.15	1.42	1.72	2.02		
Cc1c(/N=C/c2ccc(Cl)cc2Cl)c(=O)n(-c2ccccc2)n1C	>0.14	>0.14	>0.14	1.16	1.46	>0.14	>0.14	1.46	1.16	1.46		
COc1cccc(/C=N/c2c(C)n(C)n(-c3ccccc3)c2=O)c1O	>0.15	>0.15	>0.15	1.13	1.43	>0.15	>0.15	1.13	1.13	1.43	89.1	
Cc1c(/N=C/c2cccc([N+](=O)[O-])c2)c(=O)n(-c2ccccc2)n1C	>0.15	>0.15	>0.15	1.43	1.43	>0.15	>0.15	1.43	1.13	1.43		
COc1ccccc1/C=N/c1c(C)n(C)n(-c2ccccc2)c1=O	>0.16	>0.16	>0.16	1.41	1.41	>0.16	>0.16	1.41	1.41	1.41		70.8
COc1cccc(/C=N/c2c(C)n(C)n(-c3ccccc3)c2=O)c1	0.16	>0.16	>0.16	1.11	1.41	>0.16	>0.16	1.41	1.11	1.41		
Cc1c(/N=C/c2ccccc2Cl)c(=O)n(-c2ccccc2)n1C	>0.15	>0.15	>0.15	1.42	1.42	>0.15	>0.15	1.42	1.12	1.42		
Cc1c(/N=C/c2cccc(O)c2)c(=O)n(-c2ccccc2)n1C	>0.16	>0.16	>0.16	1.39	1.39	>0.16	>0.16	1.39	1.09	1.39		
CCOc1cc(/C=N/c2c(C)n(C)n(-c3ccccc3)c2=O)ccc1O	>0.14	>0.14	>0.14	1.15	1.45	>0.14	>0.14	1.45	1.15	1.45		
OC(Cn1cncn1)(Cn1cncn1)c1ccc(F)cc1F [FLUCONAZOLE]	0.04	0.04						2.64		2.64		
O=c1[nH]cc(F)c(=O)[nH]1 [FLUOROURACIL]											45.7	85.1
CCn1cc(C(=O)O)c(=O)c2cc(F)c(N3CCNCC3)cc21 [NORFLOXACIN]			0.019	2.61	2.61	0.019	0.019		2.61			
